How the values were obtained:
[1] = dissolution of Sumatriptan in ethanol; assay type: physicochemical; settings: 2 mg, 4 mg or 6 mg of Sumatriptan for 0.75 ml of ethanol at 35%
Description: This coefficient can be modulated based on the degree of alcohol and the water/ethanol ratio that is used.

[2] = administered via the digestive tract; cited from earlier work
[3] = intra-nasal, 20 mg (nasal spray, Imigrane); cited from earlier work
[4] = tested on: acute Cluster Headache attack; settings: subcutaneous injection, single dosage of 6 mg, mean delay of 15 minutes; cited from earlier work

CNS(=O)(=O)Cc1ccc2[nH]cc(CCN(C)C)c2c1 [Sumatriptan]
dissolution in ethanol [1]: complete dissolution | mean volume of theoretical distribution in the human body [2]: 200 L | residual bioavailability [2]: less than 14 % of the administered dose | mean bioavailability of the administered dose [3]: ≤ 10% | remission of the acute Cluster Headache attack [4]: 75%
